The structures appear in SMILES notation. Where a name gives a salt, the structure may show the parent alone.

The target in this assay is T1, human GPR4 (Homo sapiens, UniProt P46093).
T1 construct: expressed in transfected cells
T1 sequence (P46093 whole entry): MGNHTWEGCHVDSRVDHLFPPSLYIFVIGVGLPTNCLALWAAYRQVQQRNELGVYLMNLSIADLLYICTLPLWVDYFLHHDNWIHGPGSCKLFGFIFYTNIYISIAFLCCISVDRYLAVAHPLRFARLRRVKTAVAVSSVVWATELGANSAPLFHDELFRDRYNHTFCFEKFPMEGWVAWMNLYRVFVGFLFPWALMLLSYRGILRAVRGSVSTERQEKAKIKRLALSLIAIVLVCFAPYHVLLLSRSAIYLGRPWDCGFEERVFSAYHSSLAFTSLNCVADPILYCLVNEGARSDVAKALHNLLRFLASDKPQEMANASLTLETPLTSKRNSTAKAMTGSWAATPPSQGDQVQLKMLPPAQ
In words: Cell-based assay for human GPR4 activity (pH-induced cAMP formation, HTRF). The note with it: HeLa cells stably expressing human GPR4, pH-induced cAMP formation. How it is done: a) Cell-Based Assay for Human GPR4 Activity
HeLa cells stably expressing human GPR4 were established by transfecting the cells with a construct containing the human GPR4 coding sequence. The cells were grown in DMEM/HAM's F12 medium supplemented with 10% fetal calf serum (FCS), 100 u/ml penicillin, 100 μg/ml streptomycin and 400 μg/ml G418 and 10 mM Hepes pH 8.0. pH-induced formation of cAMP was determined using the HTRF technology as provided by CisBio Inc. The cells were seeded in 384-well plates and cultured for 24 hours at 37° C., 5% CO2 before performing the assay. Medium was removed and 10 μl buffer A (HBS, 10 mM Hepes, pH 8, 2 mM IBMX) was added. For compound testing, buffer A with 2× concentrated compounds was used. Cells were incubated for 15 min at room temperature. 10 μl buffer B (HBS, 30 mM Hepes, specific pH) was added to reach the appropriate final pH for stimulation (see below) and incubation was continued for 15 min at room temperature. […] HBS: 130 mM NaCl, 0.9 mM NaH2PO4, 5.4 mM KCl, 0.8 mM MgSO4, CaCl2 1.8 mM, 25 mM glucose, 10-30 mM Hepes. Adjustment of HBS buffers: Bf A Bf B Final stimulation pH (1 volume buffer A+1 volume buffer B)
Compounds were diluted from fresh stock solutions at 10 mM in DMSO to 2 mM and then used for serial dilutions in DMSO.
In turn, `CCc1nc2c(C)cc(C)nc2n1Cc1ccc(C#CCN2CCN(C(C)C)CC2)cc1` [Example 1, 2-Ethyl-3-{4-[3-(4-isopropyl-piperazin-1-yl)-prop-1-ynyl]-benzyl}-5,7-dimethyl-3H-imidazo[4,5-b]pyridine] registered a half-maximal inhibitory concentration (IC50) of 189 nM.

`CCc1nc2c(C)cc(C)nc2n1Cc1ccc(C#CCN2CCC(N3CCCCC3)CC2)cc1` [Example 2, 1′-{3-[4-(2-Ethyl-5,7-dimethyl-imidazo[4,5-b]pyridin-3-ylmethyl)-phenyl]-prop-2-ynyl}-[1,4′]bipiperidine]: inhibition was half-maximal at 73 nM (IC50).

Turning to `CCc1nc2c(C)cc(C)nc2n1Cc1ccc(C#CCN2CCCC2)cc1` [Example 3, 2-Ethyl-5,7-dimethyl-3-[4-(3-pyrrolidin-1-yl-prop-1-ynyl)-benzyl]-3H-imidazo[4,5-b]pyridine], the IC50 was 584 nM.

The molecule `CCc1nc2c(C)cc(C)nc2n1Cc1ccc(C#CCNCCN2CCCC2)cc1` [Example 4, {3-[4-(2-Ethyl-5,7-dimethyl-imidazo[4,5-b]pyridin-3-ylmethyl)-phenyl]-prop-2-ynyl}-(2-pyrrolidin-1-yl-ethyl)-amine] yielded a concentration for half-maximal inhibition (IC50) of 704 nM.

Turning to `CCc1nc2c(C)cc(C)nc2n1Cc1ccc(CCN2CCC(N3CCCCC3)CC2)cc1` [Example 5, 1′-{2-[4-(2-Ethyl-5,7-dimethyl-imidazo[4,5-b]pyridin-3-ylmethyl)-phenyl]-ethyl}-[1,4′]bipiperidinyl], the concentration for half-maximal inhibition (IC50) was found to be 227 nM.

Molecule `CCc1nc2c(C)cc(C)nc2n1Cc1ccc(CCCN2CCN(C)CC2)cc1` [Example 6, 2-Ethyl-5,7-dimethyl-3-{4-[3-(4-methyl-piperazin-1-yl)-propyl]-benzyl}-3H-imidazo[4,5-b]pyridine dihydrochloride] returned a half-inhibitory concentration (IC50) of 395 nM.

Molecule `CCCN1CCN(CCCc2ccc(Cn3c(CC)nc4c(C)cc(C)nc43)cc2)CC1` [Example 7, 2-Ethyl-5,7-dimethyl-3-{4-[3-(4-propyl-piperazin-1-yl)-propyl]-benzyl}-3H-imidazo[4,5-b]pyridine] displayed a half-inhibitory concentration (IC50) of 39 nM.

`CCc1nc2c(C)cc(C)nc2n1Cc1ccc(CCCN2CCN(C(C)C)CC2)cc1` [Example 8, 2-Ethyl-3-{4-[3-(4-isopropyl-piperazin-1-yl)-propyl]-benzyl}-5,7-dimethyl-3H-imidazo[4,5-b]pyridine dihydrochloride] displayed an IC50 of 274 nM.

`CCc1nc2c(C)cc(C)nc2n1Cc1ccc(CCCN2CCN(C3CC3)CC2)cc1` [Example 9, 3-{4-[3-(4-Cyclopropyl-piperazin-1-yl)-propyl]-benzyl}-2-ethyl-5,7-dimethyl-3H-imidazo[4,5-b]pyridine] had an IC50 of 341 nM.

Molecule `CCCCN1CCN(CCCc2ccc(Cn3c(CC)nc4c(C)cc(C)nc43)cc2)CC1` [Example 10, 3-{4-[3-(4-Butyl-piperazin-1-yl)-propyl]-benzyl}-2-ethyl-5,7-dimethyl-3H-imidazo[4,5-b]pyridine] came in with a half-maximal inhibitory concentration (IC50) of 123 nM.

Turning to `CCc1nc2c(C)cc(C)nc2n1Cc1ccc(CCCN2CCN(C(C)CC)CC2)cc1` (stereo not drawn) [Example 11, 3-{4-[3-(4-sec-Butyl-piperazin-1-yl)-propyl]-benzyl}-2-ethyl-5,7-dimethyl-3H-imidazo[4,5-b]pyridine], the 50% inhibitory concentration (IC50) was 479 nM.

In turn, `CCc1nc2c(C)cc(C)nc2n1Cc1ccc(CCCN2CCN(C(C)(C)C)CC2)cc1` [Example 12, 3-{4-[3-(4-tert-Butyl-piperazin-1-yl)-propyl]-benzyl}-2-ethyl-5,7-dimethyl-3H-imidazo[4,5-b]pyridine] came in with an IC50 of 53 nM.

Turning to `CCCCCN1CCN(CCCc2ccc(Cn3c(CC)nc4c(C)cc(C)nc43)cc2)CC1` [Example 13, 2-Ethyl-5,7-dimethyl-3-{4-[3-(4-pentyl-piperazin-1-yl)-propyl]-benzyl}-3H-imidazo[4,5-b]pyridine], the IC50 was found to be 662 nM.

In turn, `CCCC(C)N1CCN(CCCc2ccc(Cn3c(CC)nc4c(C)cc(C)nc43)cc2)CC1` (stereo not drawn) [Example 14, 2-Ethyl-5,7-dimethyl-3-(4-{3-[4-(1-methyl-butyl)-piperazin-1-yl]-propyl}-benzyl)-3H-imidazo[4,5-b]pyridine] gave a concentration for half-maximal inhibition (IC50) of 217 nM.

Molecule `CCc1nc2c(C)cc(C)nc2n1Cc1ccc(CCCN2CCN(C(CC)CC)CC2)cc1` [Example 15, 2-Ethyl-3-(4-{3-[4-(1-ethyl-propyl)-piperazin-1-yl]-propyl}-benzyl)-5,7-dimethyl-3H-imidazo[4,5-b]pyridine] showed an IC50 of 50 nM.

`CCc1nc2c(C)cc(C)nc2n1Cc1ccc(CCCN2CCN(CCC(C)C)CC2)cc1` [Example 16, 2-Ethyl-5,7-dimethyl-3-(4-{3-[4-(3-methyl-butyl)-piperazin-1-yl]-propyl}-benzyl)-3H-imidazo[4,5-b]pyridine] had an IC50 of 283 nM.

`CCc1nc2c(C)cc(C)nc2n1Cc1ccc(CCCN2CCN(CC3CCC3)CC2)cc1` [Example 17, 3-{4-[3-(4-Cyclobutylmethyl-piperazin-1-yl)-propyl]-benzyl}-2-ethyl-5,7-dimethyl-3H-imidazo[4,5-b]pyridine dihydrochloride] showed an IC50 of 178 nM.

Regarding `CCc1nc2c(C)cc(C)nc2n1Cc1ccc(CCCN2CCN(C3CCCC3)CC2)cc1` [Example 18, 3-{4-[3-(4-Cyclopentyl-piperazin-1-yl)-propyl]-benzyl}-2-ethyl-5,7-dimethyl-3H-imidazo[4,5-b]pyridine], the IC50 amounted to 186 nM.

Take `CCc1nc2c(C)cc(C)nc2n1Cc1ccc(CCCN2CCN(C3CCCCC3)CC2)cc1` [Example 19, 3-{4-[3-(4-Cyclohexyl-piperazin-1-yl)-propyl]-benzyl}-2-ethyl-5,7-dimethyl-3H-imidazo[4,5-b]pyridine dihydrochloride]: the IC50 was 182 nM.

The molecule `CCc1nc2c(C)cc(C)nc2n1Cc1ccc(CCCN2CCN(CCOC)CC2)cc1` [Example 20, 2-Ethyl-3-(4-{3-[4-(2-methoxy-ethyl)-piperazin-1-yl]-propyl}-benzyl)-5,7-dimethyl-3H-imidazo[4,5-b]pyridine dihydrochloride] returned a half-inhibitory concentration (IC50) of 953 nM.

`CCc1nc2c(C)cc(C)nc2n1Cc1ccc(CCCN2CCN(CCN(C)C)CC2)cc1` [Example 21, [2-(4-{3-[4-(2-Ethyl-5,7-dimethyl-imidazo[4,5-b]pyridin-3-ylmethyl)-phenyl]-propyl}-piperazin-1-yl)-ethyl]-dimethyl-amine dihydrochloride]: the IC50 amounted to 345 nM.

`CCc1nc2c(C)cc(C)nc2n1Cc1ccc(CCCN2CCN(CC)C(C)C2)cc1` (stereo not drawn) [Example 22, 2-Ethyl-3-{4-[3-(4-ethyl-3-methyl-piperazin-1-yl)-propyl]-benzyl}-5,7-dimethyl-3H-imidazo[4,5-b]pyridine dihydrochloride] showed a half-inhibitory concentration (IC50) of 223 nM.

`CCc1nc2c(C)cc(C)nc2n1Cc1ccc(CCCN2CCN(C(C)C)C(C)C2)cc1` (stereo not drawn) [Example 23, 2-Ethyl-3-{4-[3-(4-isopropyl-3-methyl-piperazin-1-yl)-propyl]-benzyl}-5,7-dimethyl-3H-imidazo[4,5-b]pyridine] returned an IC50 of 253 nM.

Molecule `CCc1nc2c(C)cc(C)nc2n1Cc1ccc(CCCN2CCN(C)C[C@@H]2C(C)C)cc1` [Example 24, 2-Ethyl-3-{4-[3-((S)-2-isopropyl-4-methyl-piperazin-1-yl)-propyl]-benzyl}-5,7-dimethyl-3H-imidazo[4,5-b]pyridine dihydrochloride] displayed a half-inhibitory concentration (IC50) of 961 nM.

In turn, `CCc1nc2c(C)cc(C)nc2n1Cc1ccc(CCCN2CCN(C(C)C)C(CC)C2)cc1` (stereo not drawn) [Example 25, 2-Ethyl-3-{4-[3-(3-ethyl-4-isopropyl-piperazin-1-yl)-propyl]-benzyl}-5,7-dimethyl-3H-imidazo[4,5-b]pyridine] showed a half-maximal inhibitory concentration (IC50) of 364 nM.

`CCc1nc2c(C)cc(C)nc2n1Cc1ccc(CCCN2C[C@H]3C[C@@H]2CN3CC)cc1` [Example 26, 2-Ethyl-3-{4-[3-((1R,4R)-5-ethyl-2,5-diaza-bicyclo[2.2.1]hept-2-yl)-propyl]-benzyl}-5,7-dimethyl-3H-imidazo[4,5-b]pyridine]: the half-inhibitory concentration (IC50) amounted to 877 nM.

In the case of `CCc1nc2c(C)cc(C)nc2n1Cc1ccc(CCCN2C[C@H]3C[C@@H]2CN3CC(C)C)cc1` [Example 27, 2-Ethyl-3-{4-[3-((1R,4R)-5-isobutyl-2,5-diaza-bicyclo[2.2.1]hept-2-yl)-propyl]-benzyl}-5,7-dimethyl-3H-imidazo[4,5-b]pyridine dihydrochloride], the IC50 amounted to 411 nM.

`CCc1nc2c(C)cc(C)nc2n1Cc1ccc(CCCN2C[C@H]3C[C@@H]2CN3CC2CC2)cc1` [Example 28, 3-{4-[3-((1R,4R)-5-Cyclopropylmethyl-2,5-diaza-bicyclo[2.2.1]hept-2-yl)-propyl]-benzyl}-2-ethyl-5,7-dimethyl-3H-imidazo[4,5-b]pyridine] showed a concentration for half-maximal inhibition (IC50) of 436 nM.

Molecule `Cc1cc(C)c2nc(C)n(Cc3ccc(/C=C/CN4CCC(N5CCCCC5)CC4)cc3)c2n1` [Example 30, 1′-{(E)-3-[4-(2,5,7-Trimethyl-imidazo[4,5-b]pyridin-3-ylmethyl)-phenyl]-allyl}-[1,4′]bipiperidinyl] came in with an IC50 of 94 nM.

On to `CCc1nc2c(C)cc(C)nc2n1Cc1ccc(/C=C/CN2CCC(N(CC)CC)CC2)cc1` [Example 31, Diethyl-(1-{(E)-3-[4-(2-ethyl-5,7-dimethyl-imidazo[4,5-b]pyridin-3-ylmethyl)-phenyl]-allyl}-piperidin-4-yl)-amine dihydrochloride], for which 144 nM corresponded to half-maximal inhibition (IC50).

The IC50 is the point on the concentration scale where inhibition reaches its midpoint.

The values above are taken from patent publication US20090291942A1, “IMIDAZO PYRIDINE DERIVATIVES” (priority 2008, published 2009).
